Experimental data reported in the SangsterLogP compilation.

Test: method code SF-HPLC, from DOI: 10.1002/jps.2600740210, PMID: 3989684
Conditions: pH 7.7

logD	SMILES
0.38	NS(=O)(=O)c1nc2ccc(OCCO)cc2s1
2.3	NS(=O)(=O)c1nc2c(Cl)cc(Cl)cc2s1
1.19	NS(=O)(=O)c1nc2ccccc2s1
3.06	NS(=O)(=O)c1nc2ccc(OCc3ccccc3)cc2s1
1.86	NS(=O)(=O)c1nc2ccc(Cl)cc2s1
1.91	CCOc1ccc2nc(S(N)(=O)=O)sc2c1
0.38	Nc1ccc2nc(S(N)(=O)=O)sc2c1
0.92	NS(=O)(=O)c1nc2ccc(O)cc2s1
0.9	NS(=O)(=O)c1nc2ccc([N+](=O)[O-])cc2s1
0.68	CC(=O)Nc1ccc2nc(S(N)(=O)=O)sc2c1
